Experiments:
EGFR mutant (C797S) = molecular target: T1, EGFR mutant (C797S) (Homo sapiens, UniProt P00533, C797S); assay: Mass spectrometry for EGFR mutant (C797S); format: binding; details: 10-fold excess of compound, up to 3 hrs, MALDI
T1 construct: Amino acids 696 to 1022 of the EGFR-WT kinase domain; six-histidine tag (TEV-cleavable) (C); made in house; host or cells: SF21 insect cells (baculovirus; P1 stocks in SF9)
Protocol: Amino acids 696 to 1022 of the EGFR-WT kinase domain (NM_005228, NP_005219.2) was subcloned into the NcoI and HindIII sites of the pFastHTa vector (Invitrogen, Carlsbad, Calif.). To make the EGFR-mutant protein, the cysteine at position 797 was changed to a serine using the Stratagene QuikChange kit (Stratagene, Cedar Creek, Tex.), according to manufacturer's instructions.
EGFR wild type and EGFR mutant (C797S) was incubated with 10-fold excess of compound I-1 for 1 hr and 3 hrs. 1 ul aliquots of the samples (total volume 5-8 ul) were diluted with 10 ul of 0.1% TFA prior to micro C4 ZipTipping directly onto the MALDI target using Sinapinic acid as the desorption matrix (10 mg/ml in 0.1% TFA:Acetonitrile 50:50). […] (See FIG. 8).

ErbB2 = ErbB2 (Homo sapiens, UniProt P04626); assay: Z'-LYTE biochemical assay, ErbB2 kinase inhibition
Outline: (§1)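 Fluorescence-based coupled-enzyme Z′-LYTE format: kinase phosphorylation of a peptide substrate is read by differential protease cleavage of phosphorylated versus non-phosphorylated peptide.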

ErbB1 = ErbB1 (Homo sapiens, UniProt P00533); assay: Z'-LYTE biochemical assay, ErbB1 kinase inhibition
Outline: as §1

BTK in Ramos cells = assay: Washout experiment with Ramos cells for BTK activity; format: cell-based, human; details: for BTK Inhibition Type: Ramos washout assay, 100 nM compound for 1 hour
Protocol: Ramos cells were serum starved for one hour in RPMI media+1% glutamine at 37° C. After starvation, Ramos cells were treated with 100 nM compound diluted in serum free RPMI media for 1 hour. After compound treatment, the media was removed and cells were washed with compound-free media. Subsequently, Ramos cells were washed every 2 hours and resuspended in fresh compound-free media. Cells were collected at specified timepoints, treated with 1 ug anti-human IgM (Southern Biotech cat #2022-01) for 10 minutes on ice to induce BCR signaling and then washed in PBS. Ramos cells were then lysed in Cell Extraction Buffer (Invitrogen FNN0011) supplemented with Roche complete protease inhibitor tablets (Roche 11697498001) and phosphatase inhibitors (Roche 04 906 837 001) and 18 ug total protein lysate was loaded in each lane. Inhibition of BTK kinase activity was assayed by measuring its substrate (PLCγ2) phosphorylation by western blot with phospho-specific antibodies from Cell Signaling Technologies cat#3871. FIG. 10 depicts the results of compound I-13 in the washout experiment at 0 hour, 4 hour, 6 hour, and 8 hour time points.

BTK = BTK (Homo sapiens, UniProt Q06187); assay: Mass spectrometry for BTK (intact protein); format: binding; details: 10× excess, 1 hr, MALDI
Protocol: Intact BTK was incubated for 1 hr at a 10× fold excess of compound I-63 or I-66 to protein. Aliquots (2 ul) of the samples were diluted with 10 ul of 0.1% TFA prior to micro C4 ZipTipping directly onto the MALDI target using Sinapinic acid as the desorption matrix (10 mg/ml in 0.1% TFA:Acetonitrile 20:80). The top panels of FIGS. 12 and 13 show the mass spec trace of the intact BTK protein (m/z 81,169 Da). The bottom panels show the mass spec trace when BTK was incubated with compound I-63 (mw 424.5) or compound I-66 (mw 425.5) in FIGS. 12 and 13, respectively.

Sequence of ErbB2 (P04626 23-1255): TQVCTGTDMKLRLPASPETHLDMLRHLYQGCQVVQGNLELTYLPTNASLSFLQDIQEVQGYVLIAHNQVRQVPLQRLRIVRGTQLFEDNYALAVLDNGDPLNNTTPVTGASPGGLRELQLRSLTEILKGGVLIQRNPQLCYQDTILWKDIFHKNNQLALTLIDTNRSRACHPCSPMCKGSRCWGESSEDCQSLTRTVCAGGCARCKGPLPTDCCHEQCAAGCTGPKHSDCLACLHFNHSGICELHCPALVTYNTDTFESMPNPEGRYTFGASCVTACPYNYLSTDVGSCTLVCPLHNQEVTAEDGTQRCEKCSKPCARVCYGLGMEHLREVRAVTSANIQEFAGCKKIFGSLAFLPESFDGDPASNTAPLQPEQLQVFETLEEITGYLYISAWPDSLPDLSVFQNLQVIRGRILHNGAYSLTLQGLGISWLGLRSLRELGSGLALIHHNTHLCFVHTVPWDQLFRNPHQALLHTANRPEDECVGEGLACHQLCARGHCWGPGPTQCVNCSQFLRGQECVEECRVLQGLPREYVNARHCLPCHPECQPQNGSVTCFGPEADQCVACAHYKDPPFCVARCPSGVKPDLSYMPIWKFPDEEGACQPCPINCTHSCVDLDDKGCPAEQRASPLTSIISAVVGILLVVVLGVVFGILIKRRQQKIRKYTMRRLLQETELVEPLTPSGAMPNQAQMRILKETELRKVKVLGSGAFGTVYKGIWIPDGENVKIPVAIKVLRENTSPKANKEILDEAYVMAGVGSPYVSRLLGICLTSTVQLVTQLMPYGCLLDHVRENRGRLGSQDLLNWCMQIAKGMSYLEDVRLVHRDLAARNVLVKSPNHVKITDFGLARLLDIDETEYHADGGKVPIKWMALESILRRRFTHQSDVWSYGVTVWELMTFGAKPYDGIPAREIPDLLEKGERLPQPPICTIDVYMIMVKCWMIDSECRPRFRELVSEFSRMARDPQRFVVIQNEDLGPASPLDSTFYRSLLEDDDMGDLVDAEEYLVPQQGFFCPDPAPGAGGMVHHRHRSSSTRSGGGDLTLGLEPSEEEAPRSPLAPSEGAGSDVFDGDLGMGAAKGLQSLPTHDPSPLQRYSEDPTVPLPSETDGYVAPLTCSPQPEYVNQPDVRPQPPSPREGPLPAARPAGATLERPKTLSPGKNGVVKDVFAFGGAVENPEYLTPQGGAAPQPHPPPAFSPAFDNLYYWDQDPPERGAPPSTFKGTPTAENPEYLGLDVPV
Sequence of BTK (Q06187 whole entry): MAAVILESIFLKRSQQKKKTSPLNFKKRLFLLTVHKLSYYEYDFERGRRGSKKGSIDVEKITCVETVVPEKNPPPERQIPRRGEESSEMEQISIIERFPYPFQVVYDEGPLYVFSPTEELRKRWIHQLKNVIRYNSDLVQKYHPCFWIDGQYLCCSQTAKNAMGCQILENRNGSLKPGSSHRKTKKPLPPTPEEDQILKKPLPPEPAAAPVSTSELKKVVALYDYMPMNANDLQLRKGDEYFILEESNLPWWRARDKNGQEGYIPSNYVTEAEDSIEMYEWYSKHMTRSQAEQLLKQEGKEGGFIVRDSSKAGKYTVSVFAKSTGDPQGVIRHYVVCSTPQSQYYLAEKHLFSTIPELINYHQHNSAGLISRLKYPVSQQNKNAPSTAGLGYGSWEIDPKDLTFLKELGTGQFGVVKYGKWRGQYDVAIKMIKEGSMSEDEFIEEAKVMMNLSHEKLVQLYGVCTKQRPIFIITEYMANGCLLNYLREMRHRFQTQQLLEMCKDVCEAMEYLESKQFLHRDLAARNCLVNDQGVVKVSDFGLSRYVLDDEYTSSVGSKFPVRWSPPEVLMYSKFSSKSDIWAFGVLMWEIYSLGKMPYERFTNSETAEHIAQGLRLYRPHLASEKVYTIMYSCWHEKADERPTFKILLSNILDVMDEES

modification of intact BTK by mass shift (BTK) | SMILES | inhibition at 1 µM (ErbB2) [%] | BTK Inhibition Type (BTK in Ramos cells) | also measured
complete modification of BTK | C=CC(=O)Nc1cccc(Nc2cc(Nc3ccc(Oc4ccccc4)cc3)ncn2)n1 [I-63] |  | irreversible | 
complete modification of BTK | C=CC(=O)Nc1cccc(Nc2cc(Oc3ccc(Oc4ccccc4)cc3)ncn2)n1 [I-66] |  | irreversible | 

Further lines, the compound ahead of its results:

SMILES | modification of intact BTK by mass shift (BTK) | inhibition at 1 µM (ErbB2) [%] | BTK Inhibition Type (BTK in Ramos cells) | also measured
C=CC(=O)Nc1cccc(Nc2cc(Nc3cccc(Br)c3)ncn2)c1 [I-1, N-{3-[6-(3-bromophenylamino)-pyrimidin-4-ylamino]-phenyl}-2-propenamide] |  | 76 |  | reactivity with EGFR mutant (C797S) by intact mass (EGFR mutant (C797S)): no significant reactivity; inhibition at 0.1 µM (ErbB2; @ 100 nM): 61%; inhibition at 0.01 µM (ErbB1; @ 10 nM): 99%
C=CC(=O)Nc1cccc(Nc2cc(Nc3ccc(Oc4ccccc4)cc3)ncn2)c1 [I-13, N-{3-[6-(4-phenoxyphenylamino)-pyrimidin-4-ylamino]phenyl}-2 propenamide] |  | 98 | irreversible | inhibition at 1 µM (ErbB1; @ 1 μM): 92%; inhibition of BTK after washout over time (BTK in Ramos cells; Ramos cells, 100 nM, 0, 4, 6 and 8 hour time points): maintains inhibition of BTK for 8 hours
CN(C)C/C=C/C(=O)Nc1cccc(Nc2cc(Nc3ccc(Oc4ccccc4)cc3)ncn2)n1 [I-64, (E)-4-(dimethylamino)-N-(6-(6-(4-phenoxyphenylamino)pyrimidin-4-ylamino)pyridine-2-yl)but-2-enamide] |  |  | irreversible | 
C=CC(=O)Nc1cccc(Nc2cc(Oc3cccc(C)c3)ncn2)n1 [I-65] |  |  | reversible | 
